How the values were obtained:
Aphidius rhopalosiphi = assay: LR50; higher = less toxic; conditions: not reported; mortality
Mus musculus = conditions: chronic; duration: 2 years; body weight
Coturnix japonica = conditions: acute, oral, mortality
Oryctolagus sp. = conditions: reproduction developmental; body weight
Bibionidae = conditions: chronic/long-term; duration: 26 days
Daphnia magna = conditions: chronic/long-term; duration: 21 days; reproduction
Canidae = conditions: chronic; duration: 1 years; oral; Dog Other; body weight
Apis mellifera = conditions: acute; duration: 48 hours; oral; unspecified; mortality
Anatidae = conditions: oral, mortality
Pimephales promelas = conditions: chronic/long-term; duration: 32 days
Folsomia candida = conditions: chronic/long-term
Oncorhynchus mykiss = conditions: acute; duration: 96 hours; mortality

Nc1nc(N)nc(NC2CC2)n1 [Cyromazine] gave an LR50 (Aphidius rhopalosiphi) of no less than 891 g/ha, an NOAEL (Mus musculus) of 6.5 mg/kg-day and an LC50 (Coturnix japonica; diet) greater than 683 mg/kg-day. The LD50 (Coturnix japonica) was 2340 mg/kg, the LC50 (Tagia sp.; acute, duration: 14 days, mortality) was greater than 1000 mg/kg and the NOEC (Tagia sp.; chronic/long-term, duration: 56 days, reproduction) was 333 mg/kg. It also gave an NOAEL (Oryctolagus sp.) of 10 mg/kg-day, an LC50 (Colinus virginianus; acute, oral, diet, mortality) greater than 1370 mg/kg-day and an LD50 (Colinus virginianus; acute, oral, mortality) of 1780 mg/kg. For the same compound, the NOEL (Colinus virginianus; reproduction developmental) was 110 mg/kg-day, the NOEC (Bibionidae) was 0.025 mg/L and the NOEC (Daphnia magna) was 0.31 mg/L. For the same compound, the NOAEL (Canidae) was 5.74 mg/kg-day, the LD50 (Apis mellifera) was 186 µg/piece and the LD50 (Anatidae; acute, unspecified) was greater than 1000 mg/kg. For the same compound, the LC50 (Anatidae; short-term, feed) was greater than 1120 mg/kg-day, the LD50 (Anas platyrhynchos; acute, oral, unspecified, mortality) was greater than 2510 mg/kg and the NOEL (Anas platyrhynchos; reproductive) was 38.3 mg/kg-day. For the same compound, the LC50 (Anas platyrhynchos; short-term, oral, feed, mortality) was greater than 526 mg/kg-day, the NOEC (Pimephales promelas) was 14 mg/L and the LD50 (Rattus norvegicus; acute, mortality) was 3390 mg/kg. For the same compound, the NOAEL (Rattus norvegicus; reproduction developmental, reproduction) was 30 mg/kg-day, the NOEC (Folsomia candida) was 9.6 mg/kg and the LC50 (Oncorhynchus mykiss) was greater than 100 µg/mL.

Source: EPA's ToxValDB 9.5 (doi:10.2903/j.efsa.2008.168r)
